The text below walks through data of PMC5564600 (Oncotarget, 2017).

What all share (test): biochemical
Holding throughout (assay type): binding

Assay [1] has as its target T1, panel of 442 kinases (Homo sapiens, UniProt P19525).
T1 construct: purchased Ambit Biosciences (scanMAXX KINOMEscan)
The note with it: kinase PRKR; for remaining activity at 1 µM: read-out: PRKR (% of control at 1 µM).

Assay [2] concerns the target T2, panel of 442 kinases (Homo sapiens, UniProt P23443).
T2 construct: purchased Ambit Biosciences (scanMAXX KINOMEscan)
The note with it: kinase S6K1; for remaining activity at 1 µM: read-out: S6K1 (% of control at 1 µM).

In assay [3] the target is T3, panel of 442 kinases (Homo sapiens, UniProt P30291).
T3 construct: purchased Ambit Biosciences (scanMAXX KINOMEscan)
The following applies: kinase WEE1; for remaining activity at 1 µM: read-out: WEE1 (% of control at 1 µM).

The target in assay [4] is T4, panel of 442 kinases (Homo sapiens, UniProt P30530).
T4 construct: purchased Ambit Biosciences (scanMAXX KINOMEscan)
T4 sequence (P30530 26-894): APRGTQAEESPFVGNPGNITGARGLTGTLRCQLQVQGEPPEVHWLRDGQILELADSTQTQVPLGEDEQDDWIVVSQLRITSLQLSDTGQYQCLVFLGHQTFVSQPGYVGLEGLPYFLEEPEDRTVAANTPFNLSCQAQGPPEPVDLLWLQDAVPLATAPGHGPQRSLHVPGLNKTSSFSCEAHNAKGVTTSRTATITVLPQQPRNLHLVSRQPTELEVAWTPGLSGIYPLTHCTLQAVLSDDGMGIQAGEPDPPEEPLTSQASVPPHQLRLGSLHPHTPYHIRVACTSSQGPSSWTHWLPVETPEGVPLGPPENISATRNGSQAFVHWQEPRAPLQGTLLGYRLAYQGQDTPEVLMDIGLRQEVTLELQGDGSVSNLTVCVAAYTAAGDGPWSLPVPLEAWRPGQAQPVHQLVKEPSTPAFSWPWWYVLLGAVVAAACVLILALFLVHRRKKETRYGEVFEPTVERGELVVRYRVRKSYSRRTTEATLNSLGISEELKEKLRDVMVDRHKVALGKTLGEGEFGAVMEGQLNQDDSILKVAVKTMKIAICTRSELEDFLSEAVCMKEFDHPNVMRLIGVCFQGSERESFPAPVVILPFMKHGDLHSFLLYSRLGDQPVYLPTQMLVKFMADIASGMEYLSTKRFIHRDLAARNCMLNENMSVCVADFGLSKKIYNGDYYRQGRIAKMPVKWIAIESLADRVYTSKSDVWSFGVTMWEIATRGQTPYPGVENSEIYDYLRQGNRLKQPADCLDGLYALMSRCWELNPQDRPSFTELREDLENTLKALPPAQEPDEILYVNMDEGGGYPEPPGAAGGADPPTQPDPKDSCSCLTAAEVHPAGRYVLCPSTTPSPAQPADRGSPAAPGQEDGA
The note with it: AXL; for remaining activity at 1 µM: read-out: % of control at 1 µM.

The target of assay [5] is T5, panel of 442 kinases (Homo sapiens, UniProt P35968).
T5 construct: purchased Ambit Biosciences (scanMAXX KINOMEscan)
T5 sequence (P35968 20-1356): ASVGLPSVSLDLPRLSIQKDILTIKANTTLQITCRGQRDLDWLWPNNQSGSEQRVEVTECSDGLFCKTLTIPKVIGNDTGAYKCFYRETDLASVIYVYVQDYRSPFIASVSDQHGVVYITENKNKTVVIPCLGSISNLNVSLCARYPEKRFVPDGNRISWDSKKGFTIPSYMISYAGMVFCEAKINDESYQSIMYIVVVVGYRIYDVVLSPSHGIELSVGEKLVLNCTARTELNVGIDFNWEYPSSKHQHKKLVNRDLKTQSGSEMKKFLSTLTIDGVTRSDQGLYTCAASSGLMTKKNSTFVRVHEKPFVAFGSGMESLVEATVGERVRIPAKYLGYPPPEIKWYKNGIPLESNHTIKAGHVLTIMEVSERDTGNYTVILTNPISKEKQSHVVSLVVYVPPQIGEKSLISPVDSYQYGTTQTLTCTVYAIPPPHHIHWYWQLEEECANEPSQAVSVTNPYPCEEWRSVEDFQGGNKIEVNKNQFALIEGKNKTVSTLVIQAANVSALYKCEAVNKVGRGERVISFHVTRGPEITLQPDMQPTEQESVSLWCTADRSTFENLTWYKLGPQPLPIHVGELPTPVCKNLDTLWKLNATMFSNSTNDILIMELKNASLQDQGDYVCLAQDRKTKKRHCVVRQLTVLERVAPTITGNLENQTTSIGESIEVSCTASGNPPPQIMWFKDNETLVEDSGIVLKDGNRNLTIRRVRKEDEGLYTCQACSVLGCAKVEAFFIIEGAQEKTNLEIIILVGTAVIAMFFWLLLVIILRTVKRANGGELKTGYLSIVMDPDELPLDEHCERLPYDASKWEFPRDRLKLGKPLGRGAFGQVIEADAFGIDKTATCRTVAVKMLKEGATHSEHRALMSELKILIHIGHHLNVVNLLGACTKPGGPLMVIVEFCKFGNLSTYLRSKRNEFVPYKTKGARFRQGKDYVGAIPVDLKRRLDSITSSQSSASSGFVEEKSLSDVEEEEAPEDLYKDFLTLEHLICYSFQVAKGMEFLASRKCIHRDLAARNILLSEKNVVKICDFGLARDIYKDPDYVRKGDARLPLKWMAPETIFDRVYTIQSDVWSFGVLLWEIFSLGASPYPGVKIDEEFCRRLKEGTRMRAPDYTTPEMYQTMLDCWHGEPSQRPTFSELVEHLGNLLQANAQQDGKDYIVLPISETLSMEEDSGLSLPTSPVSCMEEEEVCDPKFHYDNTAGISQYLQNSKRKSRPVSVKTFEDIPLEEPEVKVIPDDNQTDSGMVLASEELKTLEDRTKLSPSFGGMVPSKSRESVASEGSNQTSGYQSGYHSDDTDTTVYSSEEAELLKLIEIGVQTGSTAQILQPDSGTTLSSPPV
The following applies: kinase VEGFR2; for remaining activity at 1 µM: read-out: VEGFR2 (% of control at 1 µM).

Assay [6] addresses T6, panel of 442 kinases (Homo sapiens, UniProt P43403).
T6 construct: purchased Ambit Biosciences (scanMAXX KINOMEscan)
T6 sequence (P43403 1-619): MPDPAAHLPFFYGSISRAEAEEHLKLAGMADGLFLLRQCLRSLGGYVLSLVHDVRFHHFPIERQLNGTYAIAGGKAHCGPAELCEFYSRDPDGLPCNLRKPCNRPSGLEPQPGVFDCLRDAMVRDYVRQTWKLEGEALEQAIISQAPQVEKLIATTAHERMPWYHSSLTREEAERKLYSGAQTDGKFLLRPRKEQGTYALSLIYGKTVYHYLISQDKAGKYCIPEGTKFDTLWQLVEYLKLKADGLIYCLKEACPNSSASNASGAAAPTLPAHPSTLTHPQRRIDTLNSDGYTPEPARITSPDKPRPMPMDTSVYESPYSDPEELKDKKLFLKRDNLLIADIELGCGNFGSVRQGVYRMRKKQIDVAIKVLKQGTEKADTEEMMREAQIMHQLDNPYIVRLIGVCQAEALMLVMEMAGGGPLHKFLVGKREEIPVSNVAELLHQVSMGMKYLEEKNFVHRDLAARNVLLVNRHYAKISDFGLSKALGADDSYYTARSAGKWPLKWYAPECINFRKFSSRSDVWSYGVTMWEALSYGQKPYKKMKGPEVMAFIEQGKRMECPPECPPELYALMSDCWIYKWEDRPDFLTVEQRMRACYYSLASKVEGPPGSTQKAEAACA
The note with it: kinase ZAP70; for remaining activity at 1 µM: read-out: ZAP70 (% of control at 1 µM).

Assay [7] concerns the target T7, panel of 442 kinases (Homo sapiens, UniProt Q07912).
T7 construct: purchased Ambit Biosciences (scanMAXX KINOMEscan)
The note with it: kinase TNK2; for remaining activity at 1 µM: read-out: TNK2 (% of control at 1 µM).

Assay [8] has as its target T8, panel of 442 kinases (Homo sapiens, UniProt Q13177).
T8 construct: purchased Ambit Biosciences (scanMAXX KINOMEscan)
The following applies: kinase PAK2; for remaining activity at 1 µM: read-out: % of control at 1 µM.

Assay [9] deals with T9, panel of 442 kinases (Homo sapiens, UniProt Q16513).
T9 construct: purchased Ambit Biosciences (scanMAXX KINOMEscan)
T9 sequence (Q16513 whole entry): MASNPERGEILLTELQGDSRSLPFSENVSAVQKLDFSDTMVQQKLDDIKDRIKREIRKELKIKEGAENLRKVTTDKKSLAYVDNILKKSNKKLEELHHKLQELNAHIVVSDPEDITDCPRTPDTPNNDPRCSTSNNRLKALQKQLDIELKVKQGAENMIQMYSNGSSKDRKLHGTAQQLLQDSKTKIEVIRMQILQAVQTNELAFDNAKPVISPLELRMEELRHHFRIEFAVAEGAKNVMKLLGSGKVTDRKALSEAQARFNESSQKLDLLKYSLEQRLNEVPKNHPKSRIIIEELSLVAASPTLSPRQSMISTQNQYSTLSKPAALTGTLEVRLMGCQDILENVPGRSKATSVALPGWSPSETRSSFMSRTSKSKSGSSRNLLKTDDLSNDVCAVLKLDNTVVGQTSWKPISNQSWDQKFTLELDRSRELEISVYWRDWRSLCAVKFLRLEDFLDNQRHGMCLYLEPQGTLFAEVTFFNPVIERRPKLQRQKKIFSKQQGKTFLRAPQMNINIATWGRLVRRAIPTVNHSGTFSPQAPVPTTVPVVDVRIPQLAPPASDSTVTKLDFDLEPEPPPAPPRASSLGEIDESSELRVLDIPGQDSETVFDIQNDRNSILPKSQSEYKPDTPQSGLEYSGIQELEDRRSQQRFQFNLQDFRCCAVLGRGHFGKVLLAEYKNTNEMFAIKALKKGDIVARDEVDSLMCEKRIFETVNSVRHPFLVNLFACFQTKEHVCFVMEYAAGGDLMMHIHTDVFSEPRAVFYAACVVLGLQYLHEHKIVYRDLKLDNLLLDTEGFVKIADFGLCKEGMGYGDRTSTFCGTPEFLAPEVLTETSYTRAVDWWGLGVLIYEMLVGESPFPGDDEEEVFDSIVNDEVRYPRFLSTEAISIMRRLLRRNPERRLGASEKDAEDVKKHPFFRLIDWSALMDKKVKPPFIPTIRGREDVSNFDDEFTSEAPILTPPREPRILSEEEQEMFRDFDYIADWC
The note with it: kinase PKN2; for remaining activity at 1 µM: read-out: PKN2 (% of control at 1 µM).

The target of assay [10] is T10, panel of 442 kinases (Homo sapiens, UniProt Q16620).
T10 construct: purchased Ambit Biosciences (scanMAXX KINOMEscan)
The following applies: kinase TRKB; for remaining activity at 1 µM: read-out: TRKB (% of control at 1 µM).

Assay [11] has as its target T11, panel of 442 kinases (Homo sapiens, UniProt Q99755).
T11 construct: purchased Ambit Biosciences (scanMAXX KINOMEscan)
The note with it: kinase PIP5K1A; for remaining activity at 1 µM: read-out: % of control at 1 µM.

[12] abbreviates: 10 µM, read-out: % of control at 10 µM.

T8 sequence (Q13177 whole entry): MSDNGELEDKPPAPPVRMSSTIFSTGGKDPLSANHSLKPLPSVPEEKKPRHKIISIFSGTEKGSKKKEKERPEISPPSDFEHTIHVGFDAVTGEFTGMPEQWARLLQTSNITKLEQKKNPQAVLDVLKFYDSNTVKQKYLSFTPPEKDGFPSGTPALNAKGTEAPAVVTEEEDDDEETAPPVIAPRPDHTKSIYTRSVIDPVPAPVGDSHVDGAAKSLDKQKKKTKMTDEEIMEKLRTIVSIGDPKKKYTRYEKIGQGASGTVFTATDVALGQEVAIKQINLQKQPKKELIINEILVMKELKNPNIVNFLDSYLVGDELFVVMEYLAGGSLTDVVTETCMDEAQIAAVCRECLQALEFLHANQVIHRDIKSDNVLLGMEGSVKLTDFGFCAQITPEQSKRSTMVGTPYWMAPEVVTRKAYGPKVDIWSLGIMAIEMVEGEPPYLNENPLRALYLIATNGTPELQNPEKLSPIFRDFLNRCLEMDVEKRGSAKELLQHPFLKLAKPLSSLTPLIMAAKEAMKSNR
T7 sequence (Q07912 whole entry): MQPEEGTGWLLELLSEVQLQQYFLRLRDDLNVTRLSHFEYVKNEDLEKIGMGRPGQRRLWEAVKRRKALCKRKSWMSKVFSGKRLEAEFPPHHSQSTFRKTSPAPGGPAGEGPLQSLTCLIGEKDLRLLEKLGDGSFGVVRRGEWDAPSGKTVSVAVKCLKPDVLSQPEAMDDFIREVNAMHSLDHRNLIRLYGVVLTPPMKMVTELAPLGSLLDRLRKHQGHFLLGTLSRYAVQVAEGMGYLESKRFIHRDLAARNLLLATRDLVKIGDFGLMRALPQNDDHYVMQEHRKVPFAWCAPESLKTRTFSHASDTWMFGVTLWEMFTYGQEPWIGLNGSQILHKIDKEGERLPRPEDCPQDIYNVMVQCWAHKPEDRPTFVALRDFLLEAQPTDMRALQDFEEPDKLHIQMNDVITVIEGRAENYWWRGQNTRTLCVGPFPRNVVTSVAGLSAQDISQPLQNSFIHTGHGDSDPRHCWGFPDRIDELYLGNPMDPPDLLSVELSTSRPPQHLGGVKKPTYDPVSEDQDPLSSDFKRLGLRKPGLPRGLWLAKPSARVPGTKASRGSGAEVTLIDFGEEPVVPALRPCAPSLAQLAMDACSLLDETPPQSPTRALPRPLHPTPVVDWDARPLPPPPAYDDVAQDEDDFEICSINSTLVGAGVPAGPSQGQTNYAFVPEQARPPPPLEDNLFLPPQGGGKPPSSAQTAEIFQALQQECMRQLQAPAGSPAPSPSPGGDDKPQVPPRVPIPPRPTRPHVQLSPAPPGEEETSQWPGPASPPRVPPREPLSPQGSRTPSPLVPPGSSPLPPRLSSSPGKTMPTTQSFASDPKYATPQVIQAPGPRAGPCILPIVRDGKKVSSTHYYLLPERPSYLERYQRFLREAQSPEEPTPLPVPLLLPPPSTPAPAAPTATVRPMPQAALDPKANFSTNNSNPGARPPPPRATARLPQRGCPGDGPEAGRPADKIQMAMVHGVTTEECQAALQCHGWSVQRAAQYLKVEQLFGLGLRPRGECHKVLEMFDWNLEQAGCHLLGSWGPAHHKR
T11 sequence (Q99755 whole entry): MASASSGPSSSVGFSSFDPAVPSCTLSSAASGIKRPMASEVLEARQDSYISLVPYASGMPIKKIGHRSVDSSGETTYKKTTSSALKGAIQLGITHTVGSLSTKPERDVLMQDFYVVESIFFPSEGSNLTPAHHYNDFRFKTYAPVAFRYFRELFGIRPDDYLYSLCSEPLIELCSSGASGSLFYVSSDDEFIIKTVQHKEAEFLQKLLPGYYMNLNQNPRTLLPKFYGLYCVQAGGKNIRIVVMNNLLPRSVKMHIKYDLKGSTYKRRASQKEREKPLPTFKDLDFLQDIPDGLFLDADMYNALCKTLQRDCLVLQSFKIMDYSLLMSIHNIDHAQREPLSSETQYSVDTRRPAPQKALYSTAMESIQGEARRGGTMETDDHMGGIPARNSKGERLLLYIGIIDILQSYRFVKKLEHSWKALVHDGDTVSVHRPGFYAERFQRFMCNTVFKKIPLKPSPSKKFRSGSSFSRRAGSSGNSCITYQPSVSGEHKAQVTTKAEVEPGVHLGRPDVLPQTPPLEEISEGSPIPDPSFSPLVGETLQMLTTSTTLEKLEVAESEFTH
T2 sequence (P23443 whole entry): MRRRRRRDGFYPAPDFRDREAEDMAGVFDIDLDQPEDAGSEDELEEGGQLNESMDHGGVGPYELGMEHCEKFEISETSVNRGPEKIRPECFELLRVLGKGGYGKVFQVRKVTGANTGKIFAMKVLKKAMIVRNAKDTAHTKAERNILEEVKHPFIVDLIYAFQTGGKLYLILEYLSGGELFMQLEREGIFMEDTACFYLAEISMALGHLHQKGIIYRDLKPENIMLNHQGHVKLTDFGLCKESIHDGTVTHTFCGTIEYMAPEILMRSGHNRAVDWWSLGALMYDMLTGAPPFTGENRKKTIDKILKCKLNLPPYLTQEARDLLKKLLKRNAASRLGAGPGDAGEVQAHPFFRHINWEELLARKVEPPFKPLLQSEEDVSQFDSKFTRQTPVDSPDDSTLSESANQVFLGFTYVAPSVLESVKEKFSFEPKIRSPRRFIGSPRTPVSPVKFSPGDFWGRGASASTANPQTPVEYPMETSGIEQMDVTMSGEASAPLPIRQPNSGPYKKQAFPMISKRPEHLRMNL

As for `COc1ncc(-c2ccc3nccc(-c4ccnnc4)c3c2)cc1NS(=O)(=O)c1ccc(F)cc1F` [Omipalisib], the remaining activity at 1 µM at panel of 442 kinases [1] is 84%; on panel of 442 kinases [2] it was 100%; at panel of 442 kinases [3], 100%; on panel of 442 kinases [4], 100%; at panel of 442 kinases [5], 78%; on panel of 442 kinases [6], 100%. Further, the remaining activity at 1 µM on panel of 442 kinases [7] amounted to 100%; on panel of 442 kinases [8], 57%; at panel of 442 kinases [9], 100%; at panel of 442 kinases [10] it was 100%; at panel of 442 kinases [11], 100%.
In the case of `Cn1c(=O)n(-c2ccc(C(C)(C)C#N)cc2)c2c3cc(-c4cnc5ccccc5c4)ccc3ncc21` [Dactolisib, 2-methyl-2-[4-(3-methyl-2-oxo-8-quinolin-3-yl-2,3-dihydroimidazo[4,5-c]quinolin-1-yl)-phenyl] propionitrile], the remaining activity at 1 µM is 95% on panel of 442 kinases [1]; 100% on panel of 442 kinases [3]; 48% on panel of 442 kinases [4]; 100% at panel of 442 kinases [5]; 99% on panel of 442 kinases [6]; 98% at panel of 442 kinases [7]. The values for the remaining activity at 1 µM at panel of 442 kinases [9], at panel of 442 kinases [10] and at panel of 442 kinases [11] were 92%, 61% and 59%, respectively.
As for `Nc1cc(C(F)(F)F)c(-c2cc(N3CCOCC3)nc(N3CCOCC3)n2)cn1` [Buparlisib], the remaining activity at 1 µM on panel of 442 kinases [1] is 88%; at panel of 442 kinases [2] it was 88%; on panel of 442 kinases [3], 100%; on panel of 442 kinases [4], 89%; on panel of 442 kinases [5] it was 87%; at panel of 442 kinases [6], 100%. For the same molecule, the remaining activity at 1 µM on panel of 442 kinases [7] was found to be 100%; at panel of 442 kinases [8] it was 68%; at panel of 442 kinases [9] it was 83%; at panel of 442 kinases [10] it was 96%; at panel of 442 kinases [11], 100%. Besides, the remaining activity at 10 µM on panel of 442 kinases [1] (10 µM, read-out: PRKR (% of control at 10 µM)) is 100%; on panel of 442 kinases [2] (10 µM, read-out: S6K1 (% of control at 10 µM)), 99%; at panel of 442 kinases [3] (10 µM, read-out: WEE1 (% of control at 10 µM)) it was 100%; at panel of 442 kinases [4] (setting [12]) it was 100%; on panel of 442 kinases [5] (10 µM, read-out: VEGFR2 (% of control at 10 µM)), 100%; on panel of 442 kinases [6] (10 µM, read-out: ZAP70 (% of control at 10 µM)), 100%. The remaining activity at 10 µM on panel of 442 kinases [7] (10 µM, read-out: TNK2 (% of control at 10 µM)) is 100%; at panel of 442 kinases [8] (setting [12]) it was 83%; at panel of 442 kinases [9] (10 µM, read-out: PKN2 (% of control at 10 µM)), 100%; at panel of 442 kinases [10] (10 µM, read-out: TRKB (% of control at 10 µM)), 80%; on panel of 442 kinases [11] (setting [12]) it was 100%.
On to `FC(F)c1nc2ccccc2n1-c1nc(N2CCOCC2)nc(N2CCOCC2)n1` [ZSTK474, 2-(difluoromethyl)-1-[4,6-di(4-morpholinyl)-1,3,5-triazin-2-yl]-1H-benzimidazole], for which the remaining activity at 1 µM is 93% on panel of 442 kinases [1]; 91% at panel of 442 kinases [2]; 100% on panel of 442 kinases [3]; 93% at panel of 442 kinases [4]; 100% at panel of 442 kinases [5]; 94% on panel of 442 kinases [6]. Moreover, the remaining activity at 1 µM at panel of 442 kinases [7], on panel of 442 kinases [8], on panel of 442 kinases [9], at panel of 442 kinases [10] and on panel of 442 kinases [11] was 100% each time.
